The text below walks through data of US20050220726A1, “Use of sugar esters in cosmetic and/or pharmaceutical preparations” (priority 2003, published 2005).

Test [1] relates to melanocytes (B16 cell line). The test is described as follows: Inhibition of melanin synthesis in B16 melanocytes. Particulars: 3 days, blank value = 100. The format is cell-based. The procedure:
Melanin is the pigment responsible for the color of the skin and hair. It is formed in special organelles, the melanosomes, which occur in the melanocytes of the basal layer of the human epidermis. The biosynthesis of melanin begins with the amino acid tyrosine which is oxidized to DOPA (dihydroxyphenylalanine) in the presence of tyrosinase. The DOPA then polymerizes to melanin. […] After incubation for 3 days at 37° C./5% CO2, the nutrient medium was replaced by a solution containing the test substances in various concentrations. After incubation for another 3 days, the cell protein content (Bradford's method) and the content of synthesized melanin were determined through the optical density of the homogenizate at 475 nm. The results are expressed in % against a blank value and are set out in Table 7.

In another test the test system is Propionibacterium acnes. The test is described as follows: Agar diffusion method, inhibition zones. The note with it: filter paper with 20 μl test substance; 18 to 24 h at 37° C., anaerobic. The format is cell-based. The procedure:
(§1) The antibacterial activity of the test substances was tested by the diffusion method on agar plates or the agar dilution method. In this method, a round filter paper of defined diameter is first impregnated with the test solution and then applied to the surface of an agar plate inoculated beforehand with the test microorganisms. The size of the inhibition zones is then determined after defined times. In particular, it is possible by this method to determine the MIC (Minimum Inhibitory Concentration) as the lowest concentration of test substance with which complete inhibition of the microorganisms can be obtained.
(§2) Agar diffusion method. The inoculum was prepared using a fresh culture in a stationary growth phase (after ca. 18-24 h) in a BHI solution (brain-heart Infusion). The bacterial suspension was adjusted to 0.5 MacFarland units, corresponding to 1.5 10^8 colony-forming units (cfu)/ml; the suspension was then diluted with a sodium chloride solution (1:100) to adjust a value of 1.5 10^6 cfu/ml. Mueller-Hinton agar (Staphylococcus epidermidis, Staphylococcus aureus) and Wilkins-Chalgrens agar containing 5% by weight sheep's blood (Propionibacterium acnes) were then sterilized for 15 mins. at 121° C. and then placed in Petri dishes. 2 to 4 ml of the bacterial suspension were then added to the Petri dishes, followed by drying at room temperature. The filter papers were impregnated with 20 μl of the test substances and applied to the surface of the agar plates. The inoculated Petri dishes were incubated for 18 to 24 h at 37° C. (the Petri dishes containing Propionibacterium acnes under anaerobic conditions) and the antimicrobial activity was then determined by determination of the growth inhibition zones. The results are set out in Table 10 and represent the diameters of the inhibition zones in mm.
On the technique in general: In agar diffusion tests the substance spreads into inoculated agar from a disc or well.

Another test relates to Staphylococcus aureus. In words: Agar diffusion method, inhibition zones. Type of test: cell-based. The note with it: filter paper with 20 μl test substance; 18 to 24 h at 37° C. The procedure:
as §1, §2

The subject of test [2] is Staphylococcus epidermidis. In words: Agar diffusion method, inhibition zones. The note with it: filter paper with 20 μl test substance; 18 to 24 h at 37° C. The format is cell-based. The procedure: as §1, §2
For another test, the system named is human fibroblasts. In words: Anti-stress effect on UV-A-damaged fibroblasts. Type of test: cell-based. Particulars: + UV-A 20 J/cm^2; for Cell proteins: blank sample = 100; for GSH/proteins: blank sample = 100, blank + UV-A = 65. The protocol:
UV-A radiation in the 320 to 400 nm range induces oxidative stress which is mainly produced by the activation of photosensitive biological components which in turn catalyze the formation of ROS-like superoxide anions, hydrogen peroxide and singlet oxygen atoms. The anti-UV-A effect was tested on fibroblasts because UV-A radiation penetrates through the dermis where it causes oxidative damage by lipoperoxidation of the cell membrane and a reduction in the content of reduced glutathione (GHS). To this end, human fibroblasts were cultivated as described in a), exposed to UV-A rays (20 J/cm^2) and the cell counts and the GSH content subsequently determined. The results are set out in Table 3, where they are expressed in %-rel. against a blank sample, and represent the results of 3 series of measurements with triple determination.

Test [3] has as its system bacterial collagenase (clostridium histolyticum). The test is described as follows: Collagenase inhibition on FITC-marked gelatin. The format is biochemical. Particulars: 60 mins. at 20° C. The protocol: In the event of inflammation, skin proteases, for example collagenase, are released from the polymorphonuclear neutrophilic granulocytes or macrophages. A similar process takes place in the skin of elderly people on exposure to UV rays. As already mentioned, the proteases—also known as matrix metalloproteases (MMPs) through their content of central zinc ions—catalyze the fragmentation of connective tissue proteins. The test substances were tested for collagenase inhibition using bacterial collagenase (clostridium histolyticum) on gelatin marked with fluorochromium (FITC, Calbiochem) as a natural nutrient medium. The incubation time was 60 mins. at 20° C.; the hydrolysis of the substrate was monitored by fluorescence at 393 nm (excitation at 328 nm). The results are set out in Table 6 as the collagenase inhibition in %.

The subject of test [4] is human leukaemic granulocytes. In words: Anti-inflammatory activity: respiratory burst of granulocytes (zymosan, luminol). The format is cell-based. The note with it: + stimulation (zymosan), blank + stimulation = 100. From the text:
In the course of cutaneous inflammation, leucocytes, such as the polymorphonuclear neutrophilic granulocytes (PMNs) for example, are stimulated by peptides, such as cytokines for example, to emit messenger substances, such as leucotriene for example, which are released from activated or necrotic cells in the dermis. These activated PMNs release not only pro-inflammatory cytokinins, leucotrienes and proteases, but also ROS, such as superoxides and hypochlorite anions for example, of which the function is to destroy penetrated pathogenic germs or fungi. This activity of the PMNs during the inflammation is known as so-called respiratory burst. To investigate to what extent the test extracts can prevent or reduce the respiratory burst, a cell line of human leukaemic granulocytes of these PMNs was incubated together with the test substances at 37° C. and 5% by vol. CO2. After the respiratory burst had been initiated by addition of a yeast extract (zymosan) to the cell solution, the release of superoxide anions was determined through their reaction with luminol.

For the next test, the system named is human keratinocytes. In words: Protecting cells against UVB radiation (cell DNA, LDH and PGE2 release). The format is cell-based. The note with it: + UV-B 50 mJ/cm^2; for Cell DNA: blank = 100, control + UV-B = 33; for LDH released / PGE2 released: control + UV-B = 100. The protocol: UVB was selected as the stress factor because the rays produce cutaneous inflammation (erythemas, oedemas) by activating enzymes that release arachidonic acid, such as phospholipase A2 (PLA2) for example. […] The influence of UVB rays on keratinocytes was determined in vitro through the release of cytoplasmatic enzymes, such as LDH (lactate dehydrogenase) for example, which runs parallel to the cell damage and the formation of PGE2. […] The quantity of keratinocytes was determined after trypsination via a cell counter while the LDH concentration was enzymatically determined. The results are set out in Table 4, where they are expressed as the activity in %-rel. against a standard, and represent the mean value of two test series involving double determination.

Consider Sucrose stearate, for which, in test [1] (conc. 0.001 % w/v), the Cell melanin is recorded as 75 %-rel and the Cell proteins is listed as 89 %-rel. In test [1] (conc. 0.003 % w/v), the Cell melanin is reported as 18 %-rel and the Cell proteins amounted to 70 %-rel.

For Trehalose caprate, the “Inhibition zones, Propionibacterium acnes” value in the test on Propionibacterium acnes came out at 10 mm. The “Inhibition zones, Staphylococcus aureus” value with Staphylococcus aureus is given as 10 mm. Further, the “Inhibition zones, Staphylococcus epidermidis” value in test [2] came out at 0 mm. For the same substance, in the test on human fibroblasts (conc. 0.00003 % w/v), the Cell proteins was found to be 120 %-rel and the GSH/proteins was determined as 87 %-rel. Further, in test [3] (Conc. [w/v] 0.3), the Collagenase inhibition turned out to be 52 %-rel. In test [1] (conc. 0.001 % w/v), this substance displayed a Cell melanin of 53 %-rel and a Cell proteins of 100 %-rel. In addition, in test [1] (conc. 0.003 % w/v), the Cell melanin turned out to be 23 %-rel and the Cell proteins was determined as 75 %-rel.

Consider Glucose caprylate, for which, in the test with Propionibacterium acnes, the “Inhibition zones, Propionibacterium acnes” value is 12 mm. The “Inhibition zones, Staphylococcus aureus” value in the test on Staphylococcus aureus is 11 mm. Further, the “Inhibition zones, Staphylococcus epidermidis” value in test [2] is listed as 0 mm.

On to Fructose stearate, for which the Cell proteins came out at 83 %-rel with human fibroblasts (conc. 0.003 % w/v), 105 %-rel in test [1] (conc. 0.006 % w/v) and 76 %-rel in test [1] (conc. 0.01 % w/v). Further, the GSH/proteins in the test on human fibroblasts (conc. 0.003 % w/v) was determined as 79 %-rel. In addition, the Collagenase inhibition in test [3] (Conc. [w/v] 0.3) is on record as 45 %-rel. For the same substance, the Cell counts in test [4] (conc. 0.001 % w/v) worked out at 100 %-rel; in test [4] (conc. 0.01 % w/v), 155 %-rel. Besides, the ROS released in test [4] (conc. 0.001 % w/v) was determined as 88 %-rel; in test [4] (conc. 0.01 % w/v) it was 26 %-rel. The Cell melanin in test [1] (conc. 0.006 % w/v) worked out at 49 %-rel; in test [1] (conc. 0.01 % w/v), 21 %-rel.

On to Fructose dicaprate, for which, in test [1] (conc. 0.003 % w/v), the Cell melanin came out at 88 %-rel and the Cell proteins stood at 105 %-rel. Besides, in test [1] (conc. 0.01 % w/v), the Cell melanin was 41 %-rel and the Cell proteins came out at 91 %-rel.

Glucose caprate: in the test on human fibroblasts (conc. 0.003 % w/v), the Cell proteins was 109 %-rel and the GSH/proteins is 144 %-rel. Also, in the test on human keratinocytes (conc. 0.003 % w/v), the “Cell DNA” value is 28 %-rel, the LDH released turned out to be 72 %-rel and the PGE2 released turned out to be 50 %-rel. In the test on human keratinocytes (conc. 0.01 % w/v), the “Cell DNA” value is given as 36 %-rel, the LDH released is listed as 48 %-rel and the PGE2 released worked out at 28 %-rel.

On to Trehalose laurate, for which, in the test with human fibroblasts (conc. 0.003 % w/v), the Cell proteins worked out at 119 %-rel and the GSH/proteins was found to be 90 %-rel. For the same substance, in test [3] (Conc. [w/v] 0.1), the Collagenase inhibition worked out at 21 %-rel.

In the case of Glucose palmitate, in the test on human fibroblasts (conc. 0.003 % w/v), the Cell proteins worked out at 119 %-rel and the GSH/proteins turned out to be 114 %-rel. Besides, in test [4] (conc. 0.001 % w/v), the Cell counts stood at 102 %-rel and the ROS released is 99 %-rel. For the same substance, in test [4] (conc. 0.01 % w/v), the Cell counts is on record as 91 %-rel and the ROS released amounted to 58 %-rel. Also, in the test with human keratinocytes (conc. 0.001 % w/v), the “Cell DNA” value worked out at 32 %-rel, the LDH released is 68 %-rel and the PGE2 released was 63 %-rel. In addition, in the test with human keratinocytes (conc. 0.003 % w/v), the “Cell DNA” value turned out to be 32 %-rel, the LDH released is 68 %-rel and the PGE2 released stood at 65 %-rel.

For the substance Fructose monostearate, the Cell melanin is 85 %-rel in test [1] (conc. 0.001 % w/v) and 34 %-rel in test [1] (conc. 0.003 % w/v). Also, the Cell proteins is reported as 104 %-rel in test [1] (conc. 0.001 % w/v) and 91 %-rel in test [1] (conc. 0.003 % w/v).

With Glucose laurate, the “Inhibition zones, Propionibacterium acnes” value with Propionibacterium acnes was 10 mm. Further, the “Inhibition zones, Staphylococcus aureus” value in the test with Staphylococcus aureus was 14 mm. Besides, in test [2], the “Inhibition zones, Staphylococcus epidermidis” value was 16 mm. For the same substance, in the test with human fibroblasts (conc. 0.0001 % w/v), the Cell proteins is 95 %-rel and the GSH/proteins is recorded as 91 %-rel. The substance further had a Collagenase inhibition in test [3] (Conc. [w/v] 0.1) of 28 %-rel. Moreover, in the test with human keratinocytes (conc. 0.001 % w/v), the “Cell DNA” value turned out to be 17 %-rel, the LDH released worked out at 105 %-rel and the PGE2 released was 107 %-rel. For the same substance, in the test with human keratinocytes (conc. 0.003 % w/v), the “Cell DNA” value came to 54 %-rel, the LDH released is recorded as 49 %-rel and the PGE2 released is recorded as 23 %-rel.
